# Laboratory results taken from publication PMC4055459, “Imatinib Treatment Causes Substantial Transcriptional Changes in Adult Schistosoma mansoni In Vitro Exhibiting Pleiotropic Effects” (PLoS Neglected Tropical Diseases, 2014).
# Target: T1, SmAbl2-TK (SmAbl2) (Schistosoma mansoni, UniProt D1H0Y8)
# T1 construct: gene abl2; capped cRNA injected into Xenopus laevis stage VI oocytes
# T1 sequence (D1H0Y8 283-538 limits assumed): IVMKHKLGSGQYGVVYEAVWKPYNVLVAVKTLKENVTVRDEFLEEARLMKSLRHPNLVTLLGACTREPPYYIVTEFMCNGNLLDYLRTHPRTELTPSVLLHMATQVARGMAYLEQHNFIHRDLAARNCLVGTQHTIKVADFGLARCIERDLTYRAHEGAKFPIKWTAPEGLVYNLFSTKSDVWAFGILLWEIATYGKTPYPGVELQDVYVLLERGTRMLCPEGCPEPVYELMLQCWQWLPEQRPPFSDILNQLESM
# Assay: germinal vesicle breakdown (GVBD) assay, cRNA-injected Xenopus oocytes
# Type: cell-based
# Conditions: remaining GVBD-inducing activity; ND96, 19 °C, 18 h after injection, pools of 10 oocytes
smiles,measurement,value
CO[C@H]1[C@@H](OC)C[C@H](C)[C@@H](OC)C2=CC(=O)C=C(NC(=O)/C(C)=C/C=C\[C@H](OC)[C@@H](OC(N)=O)/C(C)=C/[C@@H]1C)C2=O [Herbimycin A],% GVBD at 10 μM,90%
